Reference: the supplement of paper PMC10307832

What was measured:
Test in all cases: relative viability (nuclei count vs DMSO), 5 days (fraction); higher = more cells survive
YM155 + Navitoclax = compound: COCC[n+]1c2c(n(Cc3cnccn3)c1C)C(=O)c1ccccc1C2=O [YM155] + CC1(C)CCC(c2ccc(Cl)cc2)=C(CN2CCN(c3ccc(C(=O)NS(=O)(=O)c4ccc(N[C@H](CCN5CCOCC5)CSc5ccccc5)c(S(=O)(=O)C(F)(F)F)c4)cc3)CC2)C1 [Navitoclax] (partner 0.5 µM)
Procedure, shortened: (§1)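 Values are medians from duplicate plates. Each reflects relative viability, defined as the nuclei count of treated wells over that of vehicle wells. Lung cancer cell lines in 1536-well plates were pin-tool dosed one day after seeding with one drug alone or with a fixed anchor-drug dose plus five library-drug doses (not always all listed) in √10 steps, then fixed, stained and imaged at 4× after 5 days.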

YM155 + Decitabine = compound: COCC[n+]1c2c(n(Cc3cnccn3)c1C)C(=O)c1ccccc1C2=O [YM155] + Nc1ncn([C@H]2C[C@H](O)[C@@H](CO)O2)c(=O)n1 [Decitabine] (partner 2 µM)
Procedure, shortened: as §1

Quizartinib + Foretinib = compound: CC(C)(C)c1cc(NC(=O)Nc2ccc(-c3cn4c(n3)sc3cc(OCCN5CCOCC5)ccc34)cc2)no1 [Quizartinib] + COc1cc2c(Oc3ccc(NC(=O)C4(C(=O)Nc5ccc(F)cc5)CC4)cc3F)ccnc2cc1OCCCN1CCOCC1 [Foretinib] (partner 0.25 µM)
Procedure, shortened: as §1

Quizartinib + Decitabine = compound: CC(C)(C)c1cc(NC(=O)Nc2ccc(-c3cn4c(n3)sc3cc(OCCN5CCOCC5)ccc34)cc2)no1 [Quizartinib] + Nc1ncn([C@H]2C[C@H](O)[C@@H](CO)O2)c(=O)n1 [Decitabine] (partner 2 µM)
Procedure, shortened: as §1

Cell Line	relative viability (YM155 + Navitoclax; first compound 0.002 µM)	relative viability (YM155 + Navitoclax; first compound 0.006325 µM)	relative viability (YM155 + Navitoclax; first compound 0.02 µM)	relative viability (YM155 + Navitoclax; first compound 0.06325 µM)	relative viability (YM155 + Decitabine; first compound 0.002 µM)	relative viability (YM155 + Decitabine; first compound 0.006325 µM)	relative viability (YM155 + Decitabine; first compound 0.02 µM)	relative viability (YM155 + Decitabine; first compound 0.06325 µM)	relative viability (Quizartinib + Foretinib; first compound 0.001 µM)	relative viability (Quizartinib + Foretinib; first compound 0.003162 µM)	relative viability (Quizartinib + Foretinib; first compound 0.01 µM)	relative viability (Quizartinib + Foretinib; first compound 0.03162 µM)	relative viability (Quizartinib + Foretinib; first compound 0.1 µM)	relative viability (Quizartinib + Decitabine; first compound 0.001 µM)	relative viability (Quizartinib + Decitabine; first compound 0.003162 µM)	relative viability (Quizartinib + Decitabine; first compound 0.01 µM)	relative viability (Quizartinib + Decitabine; first compound 0.03162 µM)	relative viability (Quizartinib + Decitabine; first compound 0.1 µM)
NCI-H1944	1.05	0.983	1.05	1.17	0.416	0.395	0.415	0.453	0.854	0.825	0.938	0.888	0.795	0.38	0.389	0.499	0.419	0.399
NCI-H1975	1.09	0.97	1.08	0.626	0.344	0.338	0.423	0.353	0.936	0.89	0.869	0.843	1.14	0.361	0.368	0.632	0.379	0.358
NCI-H1993	0.968	0.951	0.847	0.795	0.607	0.644	0.597	0.439	0.806	0.809	0.793	0.81	0.792	0.564	0.673	0.624	0.632	0.615
NCI-H2009	1.16	1.13	1.06	0.567	0.342	0.383	0.362	0.36	1.24	1.17	1.29	1.17	1.21	0.408	0.295	0.396	0.373	0.443
NCI-H2023	1.04	1.07	0.987	0.261	0.224	0.201	0.193	0.184	0.788	0.752	0.869	–	0.742	0.22	0.198	0.266	0.157	0.214
NCI-H2085	1.06	0.989	0.99	0.674	0.594	0.557	0.54	0.471	0.868	0.853	1.2	0.873	0.883	0.521	0.536	0.58	0.544	0.583
NCI-H2087	1.03	0.875	0.969	0.816	0.37	0.282	0.245	0.293	–	1.05	1.12	0.941	1.07	0.257	0.238	0.332	0.249	0.287
NCI-H2126	0.866	0.877	0.871	0.875	0.53	0.624	0.59	0.6	1	1.12	1.2	1.22	1.23	0.623	0.519	0.693	0.557	0.592
NCI-H2170	0.545	0.572	0.524	0.692	0.506	0.508	0.42	0.516	0.932	0.956	1.08	0.981	1.12	0.424	0.466	0.468	0.578	0.44
NCI-H2347	0.756	0.779	0.83	0.46	0.64	0.612	0.648	0.539	0.655	0.963	0.638	0.892	0.938	0.578	0.586	0.65	0.619	0.59
NCI-H2405	0.891	0.602	0.699	0.226	0.711	0.7	0.644	0.397	0.96	1.04	1.03	1.05	1.07	0.723	0.72	0.789	0.737	0.87
NCI-H3122	0.969	1.04	1.02	1.05	0.428	0.432	0.482	0.486	0.919	0.918	0.988	0.953	0.965	0.382	0.354	0.524	0.459	0.417
PC-3 [JPC-3]	0.867	0.847	0.871	0.887	0.778	0.796	0.89	0.701	0.947	1.03	1.11	1.04	1.07	0.837	0.843	0.841	0.862	0.831
PC-14	1.02	1.06	0.997	0.982	0.19	0.223	0.2	0.161	0.844	0.893	0.973	0.953	0.971	0.218	0.198	0.225	0.144	0.324
RERF-LC-KJ	1.04	1.07	0.974	1.06	0.649	0.644	0.787	0.737	0.844	0.828	0.888	0.926	0.804	0.628	0.73	0.694	0.429	0.628
SK-LU-1	1.05	0.559	1.27	0.418	0.57	0.695	0.63	0.506	0.779	0.76	0.943	0.83	0.985	0.592	0.631	0.756	0.717	0.66
SK-MES-1	1.3	1.36	1.28	1.07	0.423	0.289	0.285	0.21	0.789	0.901	0.972	0.925	0.939	0.414	0.325	0.446	–	0.322
